A short description of this assay: NO generation experiment: compound reacted with H2O2 in the presence of a catalyst, Griess assay. The following applies: compound 1 mg/ml, PBS pH 5.5, 1 mM H2O2, 37° C., 4 hours. The protocol:
Generation of nitric oxide was investigated by reacting the above-described compounds having a structure of
with hydrogen peroxide (H2O2) in the presence of a catalyst. After suspending particles including 1 mg/ml of the compound below and the catalyst in a medium composed of 5 ml of PBS at pH 5.5 and hydrogen peroxide (H2O2) at 1 mM concentration, the suspension was subjected to incubation at 37° C. for 4 hours, followed by sampling the supernatant to analyze the NO generation through Griess assay.

In the case of `N=C(N)NCCC[C@H](NC(=O)OCc1ccccc1)C(=O)O` [Nα-Benzyloxycarbonyl-L-arginine], the “Concentration of generated NO” value by setting is: (catalyst Mn-porphyrin 2 mg/ml) 34 µM; (catalyst PCN-223-Fe 1 mg/ml) 216 µM.

These data come from US20240325334A1, “COMPOSITION FOR GENERATING NITROGEN MONOXIDE” (SEOUL NATIONAL UNIVERSITY R&DB FOUNDATION, priority 2021, published 2024).
